Drawing on PubChem BioAssay (NCI), this text covers GI50 and TGI for seven compounds.

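These data come from cells grown in 96-well plates and exposed to compound for 48 hours at five concentrations. GI50 = concentration required for 50% inhibition of growth. TGI is the concentration that stops growth completely.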

What all share (assay): NCI anticancer screen, dose series, 48 h
For assay [1], the system named is K-562 leukemia.
In assay [2] the test system is A549 NSCLC.
In assay [3] the test system is KM12 colon.
In assay [4] the test system is MOLT-4 leukemia.
Assay [5] relates to SNB-19 CNS.
For assay [6], the system named is CCRF-CEM leukemia.
In assay [7] the test system is SK-MEL-5 melanoma.
The subject of assay [8] is SK-MEL-28 melanoma.
The subject of assay [9] is HOP-62 NSCLC.
For assay [10], the system named is CAKI-1 renal.

Consider `CCOc1ccc(N2C(N)=NC(N)=NC2(C)C)cc1`, for which the GI50 in assay [1] was 36 µM; in [2], 50.1 µM; in assay [3] it was 74 µM; in assay [4], 65.6 µM; in assay [5], 55.8 µM; in assay [6], > 100 µM. Also, the GI50 in [7] is 40.8 µM; in assay [8], 53.7 µM; in assay [9] it was 95 µM; in assay [10], > 100 µM. Besides, the TGI in [1], in [2], in assay [3], in assay [4], in [5] and in assay [6] was > 100 µM throughout. Also, the TGI in assay [7], in assay [8], in assay [9] and in [10] was > 100 µM throughout.

As to `COc1cc(SC)ccc1C(=O)N1CCCC(C)C1` (centres undefined), the GI50 is 58.7 µM in assay [1]; > 100 µM in assay [2]; > 100 µM in [3]; 77.7 µM in assay [4]; > 100 µM in assay [5]; > 100 µM in assay [6]. Further, the GI50 is 33.3 µM in assay [7], > 100 µM in assay [8], > 100 µM in assay [9] and > 100 µM in assay [10]. The TGI in assay [1], in assay [2], in [3], in assay [4], in assay [5] and in assay [6] was > 100 µM throughout. Besides, the TGI in assay [7], in assay [8], in assay [9] and in assay [10] was > 100 µM in each case.

With `COc1cc(C=NCC(=O)CSC(c2ccccc2)c2ccccc2)cc(OC)c1OC`, the GI50 was 8.63 µM in assay [1]; 7.7 µM in assay [2]; 25.3 µM in [3]; 6.96 µM in assay [4]; 30 µM in [5]; 5.41 µM in [6]. Besides, the GI50 in [7] was 11.8 µM; in [8], 23.8 µM; in [9], 33.2 µM; in [10], 25.2 µM. The TGI in assay [1] was 93.7 µM; in assay [2], > 100 µM; in assay [3], 82.1 µM; in assay [4], 89.9 µM; in assay [5], > 100 µM; in assay [6], > 100 µM. Also, the TGI was 24.4 µM in [7], > 100 µM in assay [8], > 100 µM in assay [9] and > 100 µM in [10].

Regarding `CCn1cc(C2NC(=O)c3cc(F)ccc3N2)c2cccc(Cl)c21` (centres undefined), the GI50 in assay [1] is 0.0414 µM; in assay [2], 0.364 µM; in [3], 0.277 µM; in assay [4] it was 0.293 µM; in assay [5], 0.382 µM; in [6] it was 0.172 µM. The GI50 in assay [7] is 0.446 µM; in [8], 0.847 µM; in assay [9], 0.485 µM; in [10], 0.196 µM. Besides, the TGI is > 100 µM in [1]; > 100 µM in [2]; > 100 µM in assay [3]; > 47.8 µM in assay [4]; > 100 µM in assay [5]; > 50.3 µM in assay [6]. Moreover, the TGI in [7], in assay [8], in [9] and in [10] was > 100 µM in each case.

With `N#CC(/C(=N\NC(N)=S)C(=O)NC1C2CC3CC(C2)CC1C3)c1ccc(Cl)cc1` (centres undefined), the TGI in assay [1], in assay [2], in assay [3], in assay [4], in [5] and in [6] was > 100 µM each time. The TGI in [7], in assay [8], in [9] and in [10] was > 100 µM in each case.

As to `COCCOC(=O)CCn1cc(F)c(=O)[nH]c1=O`, the GI50 in assay [1] is 21.3 µg/mL; in [2] it was 1.79 µg/mL; in assay [3], 5.93 µg/mL; in assay [4], 19.7 µg/mL; in [5], 41.6 µg/mL; in assay [6], 16 µg/mL. The GI50 in [7] was 20.4 µg/mL; in assay [8] it was 31.7 µg/mL; in [9] it was 17.3 µg/mL; in assay [10], 4.07 µg/mL. For the same compound, the TGI in assay [1], in assay [2], in [3], in assay [4], in assay [5] and in assay [6] was > 150 µg/mL in each case. Also, the TGI in assay [7], in [8], in assay [9] and in assay [10] was > 150 µg/mL each time.

On to `COc1cc(Nc2ncc(-c3ccccc3)o2)cc(OC)c1OC`, for which the GI50 is 0.401 µM in [1]; 1.66 µM in [2]; 0.152 µM in assay [3]; 4.36 µM in [4]; 12.6 µM in [5]; 7.32 µM in assay [6]. Further, the GI50 in assay [7] was 0.138 µM; in assay [8] it was 4.38 µM; in assay [9] it was 3.47 µM; in assay [10], 0.37 µM. The TGI in [1], in assay [2], in assay [3], in [4], in [5] and in [6] was > 25 µM each time. Moreover, the TGI in assay [8], in assay [9] and in assay [10] was > 25 µM throughout.
